Reference: US12479870B2, “Base-modified cytidine nucleotides for leukemia therapy” (MEDIVIR AB, priority 2018, dated 2025)

Tests used:
Raji cells = test: Leukemia cell line CC50 assay (Cell Counting Kit-8, 5 days), Raji; type: cell-based; settings: Homo sapiens, 120 h, BL (B cell)
Experimental: (§1) Raji cells (B-lymphocyte from Burkitt's lymphoma) from ATCC Cat. no CCL-86 were grown in complete cell medium: RPMI-1640 medium Gibco Cat. no.11835-063 (Fisher Scientific), 10% Fetal Bovine serum (FBS), HyClone Cat. no. SV30160.03, lot no RAB35924 (GE Healthcare Life Sciences), Penicillin 50 u/ml/Streptomycin 0.05 mg/ml PAA Cat. no. P11-010 from Fisher Scientific.
(§2) Leukemia cells were grown in a cell culture flask 75 cm2 with approximately 100 ml complete cell medium. The cells were counted using a Scepter-hand held automated cell counter, using 60 μm sensors (Millipore) and suspended in complete cell medium to 2×10^5cells. 100 μl of the cell suspension were seeded to all wells (2×10^4 cells/well).
(§3) The compounds were tested in twelve concentrations, […], 50 ? BM−5×10^−10 μM. 100 μl from a compound dilution plate were transferred to the cell assay plate=200 μl/well total volume and incubated for 5 days, at 37° C., 5% CO2 incubator.
(§4) After 5 days, 10 μl of KIT-8 was added and the culture was incubated for 3-4 hours, at 37° C., 5% CO2 incubator.
(§5) Plate were read in the spectrophotometer at wavelength 450 nm with a reference filter of 620 nm.
(§6) CC50 values are calculated by plotting the degree of inhibition (compared to the vehicle ctrl) against the logarithm of the compound concentration. […]

U-937 cells = test: Leukemia cell line CC50 assay (Cell Counting Kit-8, 5 days), U-937; type: cell-based; settings: Homo sapiens, U-937, 120 h, AML, U937 cell line
Experimental: as §1, with “U-937” for “Raji”, “(human histiocytic” for “(B-lymphocyte from Burkitt's”, “CRL-1593.2” for “CCL-86”, “50u/ml/Streptomycin” for “50 u/ml/Streptomycin”
as §2, §3, §4, §5, §6

THP-1 cells = test: Leukemia cell line CC50 assay (Cell Counting Kit-8, 5 days), THP-1; type: cell-based; settings: Homo sapiens, THP-1, 120 h, AML, THP1 cell line
Experimental: as §1, with “THP-1” for “Raji”, “(human acute monocytic leukemia)” for “(B-lymphocyte from Burkitt's lymphoma)”, “TIB-202” for “CCL-86”
as §2, §3, §4, §5, §6

MV4-11 cells = test: Leukemia cell line CC50 assay (Cell Counting Kit-8, 5 days), MV4-11; type: cell-based; settings: Homo sapiens, MV4-11, 120 h, AML, MV411 cell line
Experimental: MV4-11 cells (human B-myelomonocytic leukemia) from ATCC Cat no. CRL-9591 were grown in complete cell medium: IMDM (w. GLUTAMAX-1) Cat no. 31980022 (Fisher Scientific), 10% Fetal Bovine serum (FBS) HyClone Cat. no. SV30160.03, lot no RAB35924 (GE Healthcare Life Sciences), Penicillin 50 u/ml/Streptomycin 0.05 mg/ml PAA Cat. no. P11-010 from Fisher Scientific.
as §2, §3, §4, §5, §6

CEM cells = test: Leukemia cell line CC50 assay (Cell Counting Kit-8, 5 days), CEM; type: cell-based; settings: Homo sapiens, CCRF-CEM, 120 h, ALL (T cell)
Experimental: CEM cells (T-lymphoblast from acute lymphoblastic leukemia) acquired from Swedish Institute for Infectious Disease Control (SMI) were grown in complete cell medium: RPMI-1640 medium (without L-glutamine) Cat. no. R7509 (Sigma Aldrich), 10% Fetal Bovine serum (FBS) HyClone Cat. no. SV30160.03, lot no RAB35924 (GE Healthcare Life Sciences), Penicillin 50u/ml/Streptomycin 0.05 mg/ml PAA Cat. no. P11-010 from Fisher Scientific, 2 mM Ultra glutamine 1 Cat. no BE17-605E/U1 (Lonza). • Cell culture flask 75 cm2, Cat. no. 83.1813 from Sarstedt AB. • Compound dilution plate, 96-well, V-bottom PP plate, Nunc Cat. no.249944 from Thermo Scientific. • Cell assay plate, 96-well, Cat. no. 128009296 from Fisher Scientific • Cell Counting Kit-8 CK04 from Dojindo. • Test compounds were made up to 10 mM stock solution in DMSO
as §2, with “cells/well). […]” for “cells/well).”
as §5, §6

K-562 cells = test: Leukemia cell line CC50 assay (Cell Counting Kit-8, 5 days), K-562; type: cell-based; settings: Homo sapiens, 120 h, CML, K562 cell line
Experimental: K-562 cells (human chronic myelogenous leukemia) from ATCC Cat. no CCL-243 were grown in complete cell medium: IMDM (w. L-glutamine, 25 mM Hepes, w/o Phenol red) Cat no. 21056-023 (Fisher Scientific), 10% Fetal Bovine serum (FBS) HyClone Cat. no. SV30160.03, lot no RAB35924 (GE Healthcare Life Sciences), Penicillin 50u/ml/Streptomycin 0.05 mg/ml Cat. no. SV30010 HyClone (Fisher Scientific)
as §2, §3, §4, §5, §6

leukemia cell lines = test: Average CC50 over the leukemia cell lines of Table 1; type: cell-based; settings: average over the leukemia cell lines of Table 1
Experimental: as §2
CC50 values are calculated by plotting the degree of inhibition (compared to the vehicle ctrl) against the logarithm of the compound concentration. Result values in the dilution series are fitted to a 4-parameter sigmoidal dose-response curve described by the expression:
[formula] where: • A=Minimum • B=Slope. • C=Inflection point. The inflection point is defined as the point on the curve where the curvature changes direction or signs. • D=Maximum • F=fraction inhibition • The CC50 value is the x-value giving F=0.5, as tabulated in Table 1 below: […]

MOLT-4 cells = test: Leukemia cell line CC50 assay (Cell Counting Kit-8, 5 days), MOLT-4; type: cell-based; settings: Homo sapiens, 120 h, ALL (T cell), MOLT-4 cell line
Experimental: as §1, with “MOLT-4” for “Raji”, “(human T-cell, acute lymphoblastic leukemia)” for “(B-lymphocyte from Burkitt's lymphoma)”, “CRL-1582” for “CCL-86”, “(FBS)” for “(FBS),”, “Scientific” for “Scientific.”
as §2, §3, §4, §5, §6

[1] = Tolerability in SCID mice with human Hep3b xenograft (body weight, clinical signs); type: in vivo, mouse; settings: 25 mg/kg i.p. BID x 5, SCID mice
Experimental: Compounds were prepared in PBS, n=9 mice per group. Body weights were monitored daily in three SCID mouse populations:
wherein the 5 day BID commenced 21 days after subcutaneous implantation with a human Hep3b xenograft.

[2] = system: advanced, cytarabine-treatment failure, leukemia; settings: cited from earlier work
[3] = Blood stability, murine whole blood; type: in vitro ADME
Experimental: Stability of compounds in blood was assessed following incubation in murine or human whole blood for up to 120 minutes. Remaining compound was quantified by LC-MS/MS and resulting data were used to calculate intrinsic clearance (CLint) values: […]

HL60 cells = test: Leukemia cell line CC50 assay (Cell Counting Kit-8, 5 days), HL60; type: cell-based; settings: Homo sapiens, HL-60, 120 h, AML
Experimental: HL60 cells (human acute promyelocytic leukemia) from ATCC Cat. no CCL-240 were grown in complete cell medium: IMDM Cat. no 330-2005 (ATCC), 20% Fetal Bovine serum (FBS) HyClone Cat. no. SV30160.03, lot no RAB35924 (GE Healthcare Life Sciences), Penicillin 50u/ml/Streptomycin 0.05 mg/ml PAA Cat. no. P11-010 from Fisher Scientific
as §2, §3, §4, §5
CC50 values are calculated by plotting the degree of inhibition (compared to the vehicle ctrl) against the logarithm of the compound concentration. Result values in the dilution series are fitted to a 4-parameter sigmoidal dose-response curve described by the expression: […]

Work on CCC[C@H](C)OC(=O)[C@H](C)NP(=O)(OC[C@H]1OC[C@@H](n2cc(F)c(N)nc2=O)O1)Oc1cccc(C2CC2)c1 (single isomer, unassigned) [Prior art Ex 29 dia-2, reference compound] yielded a CC50 (Raji cells) of 850 nM, a CC50 (U-937 cells) of 240 nM and a CC50 (THP-1 cells) of 250 nM. For the same compound, the CC50 (MV4-11 cells) was 7.8 nM, the CC50 (CEM cells) was 98 nM and the CC50 (K-562 cells) was 720 nM. The CC50 (leukemia cell lines) was 310 nM and the CC50 (MOLT-4 cells) was 2.9 nM.

For Nc1ccn([C@@H]2CO[C@H](CO)O2)c(=O)n1 [troxacitabine], the “tolerability observations (bodyweight, clinical signs)” value [1] is given as “persistent bodyweight loss and clinical signs including piloerection, hunched posture and subdued behavior” and the “patients with transient decrease in peripheral blood and marrow blasts” value [2] is given as “Four”.

In the case of Nc1nc(=O)n([C@@H]2CO[C@H](CO)O2)cc1F [5-fluorotroxacitabine, 4-amino-5-fluoro-1-((25,4S)-2-(hydroxymethyl)-1,3-dioxolan-4-yl)pyrimidin-2(1H)-one, reference compound], the “stability in mouse blood” value [3] is reported as “stable in mouse blood”.

For CC[C@@H](C)OC(=O)[C@H](C)NP(=O)(OC[C@H]1OC[C@@H](n2cc(F)c(N)nc2=O)O1)Oc1ccccc1 (single isomer, unassigned) [Prior art Ex 32 dia 2, reference compound], the CC50 (Raji cells) was 1000 nM, the CC50 (U-937 cells) was 240 nM and the CC50 (THP-1 cells) was 200 nM. For the same compound, the CC50 (MV4-11 cells) was 8.1 nM, the CC50 (CEM cells) was 52 nM and the CC50 (K-562 cells) was 440 nM. The CC50 (leukemia cell lines) was 350 nM, the CC50 (HL60 cells) was 890 nM and the CC50 (MOLT-4 cells) was 3.8 nM.
